Data as given in US20060052456A1, “Kynurenine 3-hydroxylase inhibitors for the treatment of diabetes by increasing the number of islets of langerhans cells” (MERCK PATENT GMBH, priority 2003, published 2006).

Experiments:
[1] = target: T1, kynurenine 3-hydroxylase (Rattus norvegicus, UniProt O88867); assay: Inhibitory activity on kynurenine 3-hydroxylase in rat liver homogenate; assay type: biochemical; conditions: mean of two experiments, read-out: IC50, kynurenine 3-hydroxylase inhibition
T1 construct: from tissue; host or cells: rat liver homogenate (12000 rpm pellet, resuspended)
Description: Study of the Inhibitory Activity on Kynurenine 3-Hydroxylase in Rat Liver
Rat livers are homogenised (1:8 weight/volume) in a buffer solution comprising: 0.25 M sucrose; 50 mM pH 7.4 Tris; 1 mM EDTA; and 1 mM DTT.
The homogenates are centrifuged for 10 minutes at 12000 rpm. The pellets are resuspended in the buffer solution described above (1:2 weight/volume).
The kynurenine 3-hydroxylase inhibition is determined by incubating 10 μL of the homogenate with NADPH (2 mM), kynurenine (100 μM) and various concentrations of the test compounds in a final volume of 100 μL at 37° C. for 5 minutes.
The compounds are tested at concentrations of between 1 μM and 300 μM. 3,4-Dimethoxy-N-[4-(3-nitrophenyl)thiazol-2-yl]benzenesulfonamide is a compound from the company Hoffmann-LaRoche (Basle, see J. Med. Chem., 40 (1997), 4738). 30H-Kynurenine was tested according to the protocol described by Carpendo et al. (Neuroscience, 61 (1994), 237-244).
Each of the experiments is repeated once and the IC50 values (in μmol/L) are calculated and given in the form of a mean of these two experiments.
Results concerning representative examples of family Ih are given in Table II below, in which is indicated the measurement of the percentage of remaining kynurenine 3-hydroxylase activity relative to the control (100%).

[2] = tested on: hepatocytes; assay: Hepatic glucose production in vitro in isolated hepatocytes (Table IV); assay type: cell-based, Wistar rats
Description: The following two methods were used:
1) The hepatocytes are cultured for 16 to 18 hours in DMEM medium in the presence of AMP cyclase/dexamethasone at respective concentrations of 5×10^−5 M and 5×10^−7 M, with preincubation of the products at the test doses. After washing in pH 7.4 PBS buffer, the cells are incubated for three hours at 37° C. in a Krebs/AMPc/DEX buffer at the abovementioned concentrations. 0.1 μM insulin is used as reference substance. Two identical experiments are performed (Table III-1).
After washing in pH 7.4 PBS buffer, the cells are incubated for two hours at 37° C. in a Krebs buffer free of glucose and of insulin, containing lactate/pyruvate (10/1 mM) in the presence or absence of the test compounds. 10 μM MICA (5-methoxyindole-2-carboxylic acid) is used as reference substance. Two identical experiments are performed (Table III-2).
The protein assay is performed on the rest of the incubation medium via the Lowry method (BIO-RAD Dc protein assay, BIO-RAD 5000116).
The results are expressed as nmoles of glucose produced per […] of proteins. The statistical test used is the t test.

[3] = tested on: perfused isolated pancreases from N0 STZ diabetic rats; assay: Secretion of insulin and glucagon in perfused isolated pancreases from N0 STZ diabetic rats; assay type: cell-based; conditions: perfused diabetic rat pancreas; absence of glucose, then 16.5 mM glucose; glucose-dependent
Excerpt: The results are expressed as the mean ±SEM (standard error of mean) of several experiments. The statistical test used is the Scheffé test.

T1 sequence (O88867 whole entry): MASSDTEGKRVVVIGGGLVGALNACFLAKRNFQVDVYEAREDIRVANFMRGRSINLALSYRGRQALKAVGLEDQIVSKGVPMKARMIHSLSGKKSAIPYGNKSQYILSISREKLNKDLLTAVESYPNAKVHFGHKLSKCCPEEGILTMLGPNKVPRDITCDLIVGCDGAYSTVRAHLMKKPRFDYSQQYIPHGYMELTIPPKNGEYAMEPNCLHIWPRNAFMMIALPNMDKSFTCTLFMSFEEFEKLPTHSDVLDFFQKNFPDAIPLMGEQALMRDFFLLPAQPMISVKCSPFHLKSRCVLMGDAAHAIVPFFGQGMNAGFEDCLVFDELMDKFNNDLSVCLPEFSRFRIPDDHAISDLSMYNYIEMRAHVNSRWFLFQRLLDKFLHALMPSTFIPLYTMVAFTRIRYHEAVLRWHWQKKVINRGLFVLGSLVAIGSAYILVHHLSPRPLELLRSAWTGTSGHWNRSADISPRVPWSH

SMILES | IC50 [1] [µM] | inhibition at 1 µM ([2]; Rattus norvegicus, Hepatocyte, 1 μM) [%] | inhibition at 10 µM ([2]; Rattus norvegicus, Hepatocyte) [%] | inhibition at 100 µM ([2]; Rattus norvegicus, Hepatocyte) [%] | inhibition of hepatic glucose production in vitro (in words) ([2]; isolated rat hepatocytes) | glucagon secretion (in words) [3] | insulin secretion (in words) [3]
O=C(C[C@@H](Cc1ccccc1)C(=O)O)c1ccc(F)cc1 [Compound i, (R)-2-benzyl-4-(4-fluorophenyl)-4-oxobutanoic acid] | 1 ± 0.2 | 13 | 28 | 62 | powerful inhibitors of hepatic glucose production in vitro | stimulation | stimulation
COc1ccc(S(=O)(=O)Nc2nc(-c3cccc([N+](=O)[O-])c3)cs2)cc1OC [Compound k, 3,4-dimethoxy-N-[4-(3-nitrophenyl)thiazol-2-yl]benzenesulfonamide] | 10 ± 2.1 |  | 0 | 22 |  | stimulation | stimulation
